Measured values as given in patent US20200339625A1, “NOVEL RADIOMETAL-BINDING COMPOUNDS FOR DIAGNOSIS OR TREATMENT OF PROSTATE SPECIFIC MEMBRANE ANTIGEN-EXPRESSING CANCER” (PROVINCIAL HEALTH SERVICES AUTHORITY, priority 2017, published 2020).

System: mice bearing LNCaP xenografts
Experiment: Biodistribution of 177Lu-labeled compounds
Assay type: in vivo
Description: 1.17 SPECT/CT Imaging, Biodistribution and Endoradiotherapy Studies
SPECT/CT imaging and biodistribution were performed using NOD-scid IL2Rgammanu^null (NSG) male mice, and the endoradiotherapy study was conducted using NOD.Cg-Rag1^tm1MomII2rg^tm1WjI/SzJ (NRG) male mice. The mice were maintained and the experiments were conducted in according to the guidelines established by the Canadian Council on Animal Care and approved by Animal Ethics Committee of the University of British Columbia. Mice were anesthetized by inhalation with 2% isoflurane in oxygen, and implanted subcutaneously with 1×10^7 LNCaP cells posterior to the left shoulder. Mice were used for studies when the tumor reached 5-8 mm in diameter 5-6 weeks after inoculation.
For biodistribution studies, the mice were injected with ^177Ludabeled PSMA-617 or HTK01169 (2-4 MBq) as described above. At predetermined time points (1, 4, 24, 72, or 120 h post-injection), the mice were euthanized by CO2 inhalation. Blood was withdrawn immediately from the heart, and the organs/tissues of interest were collected. The collected organs/tissues were weighed and counted using an automated gamma counter. For the blocking study, mice were co-injected with ^177Lu-HTK01169 (2-4 MBq) and 50 nmol of the non-radioactive standard, and organs/tissues of interest were collected at 4 h post-injection.

## O=C([O-])CN1CCN(CC(=O)[O-])CCN(CC(=O)NCC2CCC(C(=O)N[C@@H](Cc3ccc4ccccc4c3)C(=O)NCCCC[C@H](NC(=O)N[C@@H](CCC(=O)O)C(=O)O)C(=O)O)CC2)CCN(CC(=O)[O-])CC1.[177Lu+3] (stereo partly shown) [^177Lu-PSMA-617, reference compound]
1-120 h
  tumor-to-background contrast ratios, trend: improved over time as well
1 h post-injection
  Adrenal glands uptake: 4.88±2.41 % ID/g
  Blood uptake: 0.68±0.23 % ID/g
  Bone uptake: 0.14 ± 0.06 % ID/g
  Brain uptake: 0.03 ± 0.01 % ID/g
  Fat uptake: 0.46 ± 0.18 % ID/g
  Heart uptake: 0.28 ± 0.10 % ID/g
  Intestine uptake: 0.26 ± 0.16 % ID/g
  Kidneys uptake: 97.2±19.4 % ID/g
  Liver uptake: 0.26 ± 0.15 % ID/g
  Lung uptake: 1.34±0.39 % ID/g
  Muscle uptake: 0.18 ± 0.06 % ID/g
  Pancreas uptake: 0.33 ± 0.18 % ID/g
  Seminal uptake: 0.14 ± 0.08 % ID/g
  Spleen uptake: 3.34±1.77 % ID/g
  Stomach uptake: 0.18 ± 0.14 % ID/g
  Testes uptake: 0.49 ± 0.22 % ID/g
  Tumor uptake: 15.1±5.58 % ID/g
  Tumor/blood ratio: 22.8 ± 6.85
  Tumor/kidney ratio: 0.15 ± 0.04
  Tumor/muscle ratio: 86.9 ± 26.6
4 h post-injection
  Adrenal glands uptake: 0.40 ± 0.18 % ID/g
  Blood uptake: 0.12 ± 0.18 % ID/g
  Bone uptake: 0.06 ± 0.03 % ID/g
  Brain uptake: 0.02 ± 0.00 % ID/g
  Fat uptake: 0.16 ± 0.11 % ID/g
  Heart uptake: 0.04 ± 0.02 % ID/g
  Intestine uptake: 0.07 ± 0.04 % ID/g
  Kidneys uptake: 26.6 ± 19.1 % ID/g
  Liver uptake: 0.08 ± 0.06 % ID/g
  Lung uptake: 0.16 ± 0.07 % ID/g
  Muscle uptake: 0.05 ± 0.03 % ID/g
  Pancreas uptake: 0.05 ± 0.01 % ID/g
  Seminal uptake: 0.02 ± 0.01 % ID/g
  Spleen uptake: 0.24 ± 0.14 % ID/g
  Stomach uptake: 0.04 ± 0.02 % ID/g
  Testes uptake: 0.06 ± 0.01 % ID/g
  Tumor uptake: 14.5 ± 1.83 % ID/g
  Tumor/blood ratio: 290 ± 175
  Tumor/kidney ratio: 0.79 ± 0.48
  Tumor/muscle ratio: 371 ± 171
24 h post-injection
  Adrenal glands uptake: 0.06 ± 0.03 % ID/g
  Blood uptake: 0.00 ± 0.00 % ID/g
  Bone uptake: 0.03 ± 0.02 % ID/g
  Brain uptake: 0.01 ± 0.00 % ID/g
  Fat uptake: 0.08 ± 0.03 % ID/g
  Heart uptake: 0.01 ± 0.00 % ID/g
  Intestine uptake: 0.02 ± 0.00 % ID/g
  Kidneys uptake: 0.58 ± 0.22 % ID/g
  Liver uptake: 0.03 ± 0.01 % ID/g
  Lung uptake: 0.03 ± 0.01 % ID/g
  Muscle uptake: 0.01 ± 0.00 % ID/g
  Pancreas uptake: 0.01 ± 0.00 % ID/g
  Seminal uptake: 0.01 ± 0.00 % ID/g
  Spleen uptake: 0.05 ± 0.01 % ID/g
  Stomach uptake: 0.04 ± 0.02 % ID/g
  Testes uptake: 0.02 ± 0.01 % ID/g
  Tumor uptake: 10.9 ± 3.30 % ID/g
  Tumor/blood ratio: 2293 ± 651
  Tumor/kidney ratio: 20.7 ± 8.39
  Tumor/muscle ratio: 1582 ± 353
72 h post-injection
  Adrenal glands uptake: 0.10 ± 0.06 % ID/g
  Blood uptake: 0.00 ± 0.00 % ID/g
  Bone uptake: 0.05 ± 0.02 % ID/g
  Brain uptake: 0.01 ± 0.00 % ID/g
  Fat uptake: 0.05 ± 0.02 % ID/g
  Heart uptake: 0.01 ± 0.01 % ID/g
  Intestine uptake: 0.01 ± 0.01 % ID/g
  Kidneys uptake: 0.22 ± 0.11 % ID/g
  Liver uptake: 0.02 ± 0.01 % ID/g
  Lung uptake: 0.02 ± 0.01 % ID/g
  Muscle uptake: 0.01 ± 0.00 % ID/g
  Pancreas uptake: 0.01 ± 0.01 % ID/g
  Seminal uptake: 0.01 ± 0.01 % ID/g
  Spleen uptake: 0.03 ± 0.02 % ID/g
  Stomach uptake: 0.03 ± 0.03 % ID/g
  Testes uptake: 0.01 ± 0.00 % ID/g
  Tumor uptake: 7.80 ± 3.69 % ID/g
  Tumor/blood ratio: 2206 ± 337
  Tumor/kidney ratio: 38.0 ± 13.4
  Tumor/muscle ratio: 1378 ± 335
120 h post-injection
  Adrenal glands uptake: 0.04 ± 0.02 % ID/g
  Blood uptake: 0.00 ± 0.00 % ID/g
  Bone uptake: 0.02 ± 0.01 % ID/g
  Brain uptake: 0.01 ± 0.00 % ID/g
  Fat uptake: 0.03 ± 0.01 % ID/g
  Heart uptake: 0.00 ± 0.00 % ID/g
  Intestine uptake: 0.03 ± 0.03 % ID/g
  Kidneys uptake: 0.08 ± 0.03 % ID/g
  Liver uptake: 0.01 ± 0.00 % ID/g
  Lung uptake: 0.01 ± 0.00 % ID/g
  Muscle uptake: 0.00 ± 0.00 % ID/g
  Pancreas uptake: 0.00 ± 0.00 % ID/g
  Seminal uptake: 0.00 ± 0.00 % ID/g
  Spleen uptake: 0.02 ± 0.01 % ID/g
  Stomach uptake: 0.05 ± 0.05 % ID/g
  Testes uptake: 0.01 ± 0.00 % ID/g
  Tumor uptake: 7.91±2.82 % ID/g
  Tumor/blood ratio: 4425 ± 1485
  Tumor/kidney ratio: 103 ± 75.9
  Tumor/muscle ratio: 4388 ± 4211
mouse, in vivo
  blood clearance (qualitative): cleared rapidly from blood
Peak over 1-120 h
  peaked tumor uptake: 15.1±5.58 % ID/g
